Tests used:
human TLR2 = target: T1, human TLR2 (Homo sapiens, UniProt O60603); assay: Activation of human TLR2 IV: HEK-BLUE-hTLR2 assay; format: cell-based; conditions: HEK-BLUE-hTLR2 cells, FIG. 4
T1 construct: expressed in transfected cells; host or cells: HEK-Blue hTLR2 cells
Description: HEK-BLUE-hTLR2 cells are designed for studying the stimulation of human TLR2 (hTLR2) by monitoring the activation of NF-kB. HEK-BLUE-hTLR2 cells are obtained by co-transfection of the hTLR2 and SEAP (secreted embryonic alkaline phosphatase) reporter genes into HEK293 cells. Stimulation with a TLR2 ligand activates NF-kB which induces the production of SEAP. HEK-BLUE-hTLR2 cells were purchased from InvivoGen (San Diego, CA, USA). […] xii) Add immediately […] of the cell suspension per well of the plate which contains the solution of the compounds. The plate is then returned to the incubator at 37° C. for 16 hr and was read at 620 nm by using an ELISA reader.

HEK-Blue Null1 cells = assay: TLR- control cell line HEK-Blue Null1 (control for human TLR2); format: cell-based
Description: (§1) The secreted embryonic alkaline phosphatase (SEAP) reporter is under the control of a promoter inducible by the transcription factor NF-κB. This reporter gene allows the monitoring of signaling through the TLR, based on the activation of NF-κB. In a 96-well plate (200 µL total volume) containing the appropriate cells (50,000 - 75,000 cells/well), 20 µL of the test article or the positive control ligand (HKLC) is added to the wells. The media added to the wells is designed for the detection of NF-κB induced SEAP expression. After a 16-24-hour incubation the optical density (OD) is read at 650 nm on a Molecular Devices SpectraMax 340PC absorbance detector.

[1] = Stability III: accelerated aging at 40° C., 3 or 6 weeks, HPLC recovery; format: physicochemical
Description: Recovery of the target compound was assessed by HPLC, and the values as a percentage of the reference sample are reported in Table 14 and in FIG. 5.

mouse TLR2 = target: T2, mouse TLR2 (Mus musculus, UniProt Q9QUN7); assay: HEK-Blue mTLR2 dose response (SEAP reporter); format: cell-based
T2 construct: expressed in transfected cells; host or cells: HEK-Blue mTLR2 cells
Description: Toll-Like Receptor (TLR) stimulation is tested by assessing NF-KB activation in the TLR expressing cell lines. HEK-Blue h/mTLR2 cells have been stably transfected with human or mouse TLR2 and CD14. The activity of the test articles are tested on human and mouse TLR2, as potential agonists. The test articles are evaluated at seven concentrations and compared to control ligands (see list below). These steps are performed in triplicate.
A 5 µg/mL working stock was then prepared for each compound from the 20 µg/mL dilution in sterile PBS. Starting from the 5 µg/mL working stock, a series of six 1:4 serial dilutions were made by mixing 100 µL of the previous highest dilution with 300 µL sterile PBS.
as §1

T2 sequence (Q9QUN7 25-784): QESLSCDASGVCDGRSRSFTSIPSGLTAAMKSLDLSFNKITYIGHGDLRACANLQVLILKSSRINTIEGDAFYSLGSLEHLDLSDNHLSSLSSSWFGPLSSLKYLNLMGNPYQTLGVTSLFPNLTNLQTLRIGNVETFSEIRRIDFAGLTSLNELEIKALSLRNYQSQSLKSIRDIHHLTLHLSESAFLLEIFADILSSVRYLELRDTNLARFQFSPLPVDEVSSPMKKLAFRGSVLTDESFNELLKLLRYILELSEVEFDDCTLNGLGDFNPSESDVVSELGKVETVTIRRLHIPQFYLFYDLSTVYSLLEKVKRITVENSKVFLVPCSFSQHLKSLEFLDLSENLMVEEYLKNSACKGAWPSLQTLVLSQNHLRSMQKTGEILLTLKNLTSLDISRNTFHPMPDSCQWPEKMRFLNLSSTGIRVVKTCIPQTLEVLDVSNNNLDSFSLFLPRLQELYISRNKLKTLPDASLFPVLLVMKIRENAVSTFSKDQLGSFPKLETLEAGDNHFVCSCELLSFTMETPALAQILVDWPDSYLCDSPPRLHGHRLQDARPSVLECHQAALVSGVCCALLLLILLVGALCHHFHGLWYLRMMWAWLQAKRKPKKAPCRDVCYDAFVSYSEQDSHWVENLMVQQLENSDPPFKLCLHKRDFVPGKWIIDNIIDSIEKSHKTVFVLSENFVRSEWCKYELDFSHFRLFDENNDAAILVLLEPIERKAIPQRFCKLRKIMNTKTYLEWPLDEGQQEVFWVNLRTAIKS
T2 sequence (Q9Y2C9 32-796 partner): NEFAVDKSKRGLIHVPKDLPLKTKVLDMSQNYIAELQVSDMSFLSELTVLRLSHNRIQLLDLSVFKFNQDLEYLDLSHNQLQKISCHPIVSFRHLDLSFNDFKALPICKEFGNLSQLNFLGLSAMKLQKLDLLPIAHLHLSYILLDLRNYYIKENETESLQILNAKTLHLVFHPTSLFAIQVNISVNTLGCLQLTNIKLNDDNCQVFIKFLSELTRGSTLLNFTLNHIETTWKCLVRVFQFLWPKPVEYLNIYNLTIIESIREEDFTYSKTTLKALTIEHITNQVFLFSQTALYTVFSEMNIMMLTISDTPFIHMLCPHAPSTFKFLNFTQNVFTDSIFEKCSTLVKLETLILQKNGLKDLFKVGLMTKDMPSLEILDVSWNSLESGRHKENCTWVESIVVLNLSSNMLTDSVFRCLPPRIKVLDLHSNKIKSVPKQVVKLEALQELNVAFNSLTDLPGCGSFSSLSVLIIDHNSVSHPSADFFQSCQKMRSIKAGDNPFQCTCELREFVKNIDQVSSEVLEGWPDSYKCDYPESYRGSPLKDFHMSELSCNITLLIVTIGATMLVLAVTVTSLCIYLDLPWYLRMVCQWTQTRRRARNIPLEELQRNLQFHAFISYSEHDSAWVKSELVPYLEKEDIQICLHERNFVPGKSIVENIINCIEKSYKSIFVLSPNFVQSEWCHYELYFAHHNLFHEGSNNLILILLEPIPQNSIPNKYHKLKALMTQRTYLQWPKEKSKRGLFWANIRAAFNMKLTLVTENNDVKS
T1 sequence (O60603 21-784): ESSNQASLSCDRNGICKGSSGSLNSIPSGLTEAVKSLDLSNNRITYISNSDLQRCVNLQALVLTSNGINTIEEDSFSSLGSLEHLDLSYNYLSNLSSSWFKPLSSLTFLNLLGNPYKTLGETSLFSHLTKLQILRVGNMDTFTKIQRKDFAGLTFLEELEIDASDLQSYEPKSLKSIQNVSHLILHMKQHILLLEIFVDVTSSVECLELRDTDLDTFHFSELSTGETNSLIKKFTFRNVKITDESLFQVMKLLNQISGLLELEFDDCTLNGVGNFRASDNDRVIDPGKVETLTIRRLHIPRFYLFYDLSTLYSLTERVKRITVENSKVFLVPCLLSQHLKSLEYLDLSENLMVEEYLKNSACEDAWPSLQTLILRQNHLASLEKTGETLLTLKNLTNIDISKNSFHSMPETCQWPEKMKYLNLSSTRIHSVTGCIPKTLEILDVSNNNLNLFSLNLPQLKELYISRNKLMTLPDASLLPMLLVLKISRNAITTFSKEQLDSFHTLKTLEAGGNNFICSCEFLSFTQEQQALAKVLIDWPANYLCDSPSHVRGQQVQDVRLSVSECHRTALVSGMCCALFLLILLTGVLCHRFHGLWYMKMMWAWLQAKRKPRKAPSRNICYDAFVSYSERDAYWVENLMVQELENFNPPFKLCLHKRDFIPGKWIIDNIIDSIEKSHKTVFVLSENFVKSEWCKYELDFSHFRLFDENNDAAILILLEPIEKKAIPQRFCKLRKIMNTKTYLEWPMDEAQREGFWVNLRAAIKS
T1 sequence (Q9Y2C9 32-796 partner): as the sequence (Q9Y2C9 32-796 partner) above

| SMILES | activity at TLR2 (in words) (human TLR2) | stimulatory response in HEK-Blue Null1 (human) cells (in words) (HEK-Blue Null1 cells) | stability under accelerated storage conditions (in words) [1] | stimulatory / agonist activity for mTLR2 (in words) (mouse TLR2) |
| --- | --- | --- | --- | --- |
| CCCCCCCCCCCCCCC(C)C(=O)OCC[C@H](CSC[C@H](N)C(=O)N[C@@H](CO)C(=O)NCCOCCOCCOCCOCCOCCOCCOCCOCCOCCOCCOCCOCCOCCOCCOCCOCCOCCOCCOCCOCCOCCOCCOCCOCCOCCOCCOCCOCCC(=O)NCC(N)=O)OC(=O)C(C)CCCCCCCCCCCCCC (stereo partly drawn) [Compound B12] | significant activity | not observed | excellent stabilities | stimulatory activity |
| CCCCCCCCCCCCCCC(C)C(=O)OC[C@H](CSC[C@H](N)C(=O)N[C@@H](CO)C(=O)NCCOCCOCCOCCOCCOCCOCCOCCOCCOCCOCCOCCOCCOCCOCCOCCOCCOCCOCCOCCOCCOCCOCCOCCOCCOCCOCCOCCOCCC(=O)NCC(N)=O)OC(=O)C(C)CCCCCCCCCCCCCC (stereo partly drawn) [Compound B4] |  | not observed |  | stimulatory activity |
